Literature values in patent US8546362B2, “Medicinal cream made using neomycin sulphate, betamethasone valerate, and chitosan, and a process to make the same” (priority 2009, dated 2013).
Read-outs that look alike come from different tables or passages of the source.

What was measured:
Moraxella lacunata = conditions: in vitro
[1] = system: indole-positive and indole-negative Proteus; conditions: in vitro
Escherichia coli = conditions: in vitro
S. epidermidis = conditions: in vitro
Serratia = conditions: in vitro
Staphylococcus aureus = conditions: in vitro
[2] = from the peritoneum, draining sinuses, wounds, or surgical sites
Haemophilus influenzae = conditions: in vitro

Row | Compound | Solubility (in acetone) | Solubility (in alcohol) | Solubility (in benzene) | Solubility (in chloroform) | Solubility (in ether) | Solubility (in water) | Concentrations that inhibit most susceptible strains (Moraxella lacunata) | Concentrations that inhibit most susceptible strains [1] | Antimicrobial activity (fungi) | Concentrations that inhibit most susceptible strains (Escherichia coli) | Concentrations that inhibit most susceptible strains (S. epidermidis) | Antimicrobial activity (viruses) | Concentrations that inhibit most susceptible strains (Serratia) | Concentrations that inhibit most susceptible strains (Staphylococcus aureus) | Absorption [2] | Antibacterial activity (streptococci) | Antimicrobial activity (most anaerobic bacteria) | Antibacterial activity (Pseudomonas aeruginosa) | Concentrations that inhibit most susceptible strains (Haemophilus influenzae)
1 | CCCCC(=O)O[C@]1(C(=O)CO)[C@@H](C)C[C@H]2[C@@H]3CCC4=CC(=O)C=C[C@]4(C)[C@@]3(F)[C@@H](O)C[C@@]21C [Betamethasone Valerate, 9-Fluoro-11β, 17,21-trihydroxy-16β-methylpregna-1,4-diene-3,20-dione 17-valerate] | freely soluble | soluble | slightly soluble | freely soluble | slightly soluble | practically insoluble | – | – | – | – | – | – | – | – | – | – | – | – | –
2 | NC[C@@H]1O[C@H](O[C@H]2[C@@H](O)[C@H](O[C@@H]3[C@@H](O)[C@H](N)C[C@H](N)[C@H]3O[C@H]3O[C@H](CN)[C@@H](O)[C@H](O)[C@H]3N)O[C@@H]2CO)[C@H](N)[C@@H](O)[C@@H]1O [Neomycin] | – | very slightly soluble | – | – | – | freely soluble | 1 to 12.5 µg/mL | 1 to 12.5 µg/mL | inactive | 1 to 12.5 µg/mL | 1 to 12.5 µg/mL | inactive | 1 to 12.5 µg/mL | 1 to 12.5 µg/mL | rapidly absorbed | only minimally active | inactive | generally resistant | 1 to 12.5 µg/mL
